Results as given in patent US20240246942A1, “KINASE INHIBITORS FOR THE TREATMENT OF NEURODEGENERATIVE DISEASES” (priority 2020, published 2024).

Assays:
Assay in all cases: biochemical
[1] = target: T1, panel of 374 wild-type kinases (Homo sapiens, UniProt Q96GD4); settings: read-out: % Enzyme Activity (relative to DMSO controls), Aurora B
T1 construct: purchased Reaction Biology Corporation

[2] = target: T2, panel of 374 wild-type kinases (Homo sapiens, UniProt Q96NX5); settings: read-out: % Enzyme Activity (relative to DMSO controls), CAMK1g
T2 construct: purchased Reaction Biology Corporation

[3] = target: T3, panel of 374 wild-type kinases (Homo sapiens, UniProt O95747); settings: read-out: % Enzyme Activity (relative to DMSO controls), OSR1/OXSR1
T3 construct: purchased Reaction Biology Corporation

[4] = target: T4, panel of 374 wild-type kinases (Homo sapiens, UniProt Q8IWQ3); settings: read-out: % Enzyme Activity (relative to DMSO controls), BRSK2
T4 construct: purchased Reaction Biology Corporation
T4 sequence (Q8IWQ3 1-736): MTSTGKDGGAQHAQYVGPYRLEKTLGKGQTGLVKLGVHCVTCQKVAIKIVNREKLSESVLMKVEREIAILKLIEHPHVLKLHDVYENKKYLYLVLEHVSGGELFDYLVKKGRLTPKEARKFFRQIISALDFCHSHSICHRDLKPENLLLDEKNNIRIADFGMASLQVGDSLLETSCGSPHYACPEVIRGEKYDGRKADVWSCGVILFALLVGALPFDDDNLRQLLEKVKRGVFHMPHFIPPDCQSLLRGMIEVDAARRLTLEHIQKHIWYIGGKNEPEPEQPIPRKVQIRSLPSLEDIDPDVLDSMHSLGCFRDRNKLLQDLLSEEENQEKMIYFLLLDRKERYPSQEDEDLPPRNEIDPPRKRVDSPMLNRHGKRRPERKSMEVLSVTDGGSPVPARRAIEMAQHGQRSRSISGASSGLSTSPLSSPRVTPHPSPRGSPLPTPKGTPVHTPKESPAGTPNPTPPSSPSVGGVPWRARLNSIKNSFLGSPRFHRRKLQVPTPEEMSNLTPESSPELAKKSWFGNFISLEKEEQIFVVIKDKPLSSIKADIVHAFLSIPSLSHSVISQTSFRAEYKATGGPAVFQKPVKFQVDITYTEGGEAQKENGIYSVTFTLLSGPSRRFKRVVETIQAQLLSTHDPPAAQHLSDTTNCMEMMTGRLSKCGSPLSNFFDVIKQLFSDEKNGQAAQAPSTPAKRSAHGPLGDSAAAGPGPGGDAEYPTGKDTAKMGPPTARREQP

[5] = target: T5, panel of 374 wild-type kinases (Homo sapiens, UniProt Q14680); settings: read-out: % Enzyme Activity (relative to DMSO controls), MELK
T5 construct: purchased Reaction Biology Corporation
T5 sequence (Q14680 whole entry): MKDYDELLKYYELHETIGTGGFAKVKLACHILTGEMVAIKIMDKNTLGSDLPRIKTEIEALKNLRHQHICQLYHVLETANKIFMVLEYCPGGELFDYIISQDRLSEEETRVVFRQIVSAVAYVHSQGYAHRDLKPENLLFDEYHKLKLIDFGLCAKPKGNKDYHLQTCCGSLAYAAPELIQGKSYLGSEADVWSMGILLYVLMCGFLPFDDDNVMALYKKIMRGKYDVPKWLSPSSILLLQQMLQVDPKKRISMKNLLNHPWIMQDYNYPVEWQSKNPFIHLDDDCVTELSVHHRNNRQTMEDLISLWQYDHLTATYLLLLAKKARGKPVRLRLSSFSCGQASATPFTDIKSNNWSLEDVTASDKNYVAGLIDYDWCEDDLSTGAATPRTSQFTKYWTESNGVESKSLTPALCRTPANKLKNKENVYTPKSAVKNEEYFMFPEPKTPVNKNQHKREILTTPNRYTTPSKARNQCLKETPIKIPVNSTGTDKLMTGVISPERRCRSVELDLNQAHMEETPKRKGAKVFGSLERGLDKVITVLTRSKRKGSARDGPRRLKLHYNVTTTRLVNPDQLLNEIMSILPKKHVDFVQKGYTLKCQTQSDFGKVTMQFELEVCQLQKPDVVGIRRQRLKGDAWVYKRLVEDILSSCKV

[6] = target: T6, panel of 374 wild-type kinases (Homo sapiens, UniProt Q5S007); settings: read-out: % Enzyme Activity (relative to DMSO controls), LRRK2
T6 construct: purchased Reaction Biology Corporation
T6 sequence (Q5S007 whole entry): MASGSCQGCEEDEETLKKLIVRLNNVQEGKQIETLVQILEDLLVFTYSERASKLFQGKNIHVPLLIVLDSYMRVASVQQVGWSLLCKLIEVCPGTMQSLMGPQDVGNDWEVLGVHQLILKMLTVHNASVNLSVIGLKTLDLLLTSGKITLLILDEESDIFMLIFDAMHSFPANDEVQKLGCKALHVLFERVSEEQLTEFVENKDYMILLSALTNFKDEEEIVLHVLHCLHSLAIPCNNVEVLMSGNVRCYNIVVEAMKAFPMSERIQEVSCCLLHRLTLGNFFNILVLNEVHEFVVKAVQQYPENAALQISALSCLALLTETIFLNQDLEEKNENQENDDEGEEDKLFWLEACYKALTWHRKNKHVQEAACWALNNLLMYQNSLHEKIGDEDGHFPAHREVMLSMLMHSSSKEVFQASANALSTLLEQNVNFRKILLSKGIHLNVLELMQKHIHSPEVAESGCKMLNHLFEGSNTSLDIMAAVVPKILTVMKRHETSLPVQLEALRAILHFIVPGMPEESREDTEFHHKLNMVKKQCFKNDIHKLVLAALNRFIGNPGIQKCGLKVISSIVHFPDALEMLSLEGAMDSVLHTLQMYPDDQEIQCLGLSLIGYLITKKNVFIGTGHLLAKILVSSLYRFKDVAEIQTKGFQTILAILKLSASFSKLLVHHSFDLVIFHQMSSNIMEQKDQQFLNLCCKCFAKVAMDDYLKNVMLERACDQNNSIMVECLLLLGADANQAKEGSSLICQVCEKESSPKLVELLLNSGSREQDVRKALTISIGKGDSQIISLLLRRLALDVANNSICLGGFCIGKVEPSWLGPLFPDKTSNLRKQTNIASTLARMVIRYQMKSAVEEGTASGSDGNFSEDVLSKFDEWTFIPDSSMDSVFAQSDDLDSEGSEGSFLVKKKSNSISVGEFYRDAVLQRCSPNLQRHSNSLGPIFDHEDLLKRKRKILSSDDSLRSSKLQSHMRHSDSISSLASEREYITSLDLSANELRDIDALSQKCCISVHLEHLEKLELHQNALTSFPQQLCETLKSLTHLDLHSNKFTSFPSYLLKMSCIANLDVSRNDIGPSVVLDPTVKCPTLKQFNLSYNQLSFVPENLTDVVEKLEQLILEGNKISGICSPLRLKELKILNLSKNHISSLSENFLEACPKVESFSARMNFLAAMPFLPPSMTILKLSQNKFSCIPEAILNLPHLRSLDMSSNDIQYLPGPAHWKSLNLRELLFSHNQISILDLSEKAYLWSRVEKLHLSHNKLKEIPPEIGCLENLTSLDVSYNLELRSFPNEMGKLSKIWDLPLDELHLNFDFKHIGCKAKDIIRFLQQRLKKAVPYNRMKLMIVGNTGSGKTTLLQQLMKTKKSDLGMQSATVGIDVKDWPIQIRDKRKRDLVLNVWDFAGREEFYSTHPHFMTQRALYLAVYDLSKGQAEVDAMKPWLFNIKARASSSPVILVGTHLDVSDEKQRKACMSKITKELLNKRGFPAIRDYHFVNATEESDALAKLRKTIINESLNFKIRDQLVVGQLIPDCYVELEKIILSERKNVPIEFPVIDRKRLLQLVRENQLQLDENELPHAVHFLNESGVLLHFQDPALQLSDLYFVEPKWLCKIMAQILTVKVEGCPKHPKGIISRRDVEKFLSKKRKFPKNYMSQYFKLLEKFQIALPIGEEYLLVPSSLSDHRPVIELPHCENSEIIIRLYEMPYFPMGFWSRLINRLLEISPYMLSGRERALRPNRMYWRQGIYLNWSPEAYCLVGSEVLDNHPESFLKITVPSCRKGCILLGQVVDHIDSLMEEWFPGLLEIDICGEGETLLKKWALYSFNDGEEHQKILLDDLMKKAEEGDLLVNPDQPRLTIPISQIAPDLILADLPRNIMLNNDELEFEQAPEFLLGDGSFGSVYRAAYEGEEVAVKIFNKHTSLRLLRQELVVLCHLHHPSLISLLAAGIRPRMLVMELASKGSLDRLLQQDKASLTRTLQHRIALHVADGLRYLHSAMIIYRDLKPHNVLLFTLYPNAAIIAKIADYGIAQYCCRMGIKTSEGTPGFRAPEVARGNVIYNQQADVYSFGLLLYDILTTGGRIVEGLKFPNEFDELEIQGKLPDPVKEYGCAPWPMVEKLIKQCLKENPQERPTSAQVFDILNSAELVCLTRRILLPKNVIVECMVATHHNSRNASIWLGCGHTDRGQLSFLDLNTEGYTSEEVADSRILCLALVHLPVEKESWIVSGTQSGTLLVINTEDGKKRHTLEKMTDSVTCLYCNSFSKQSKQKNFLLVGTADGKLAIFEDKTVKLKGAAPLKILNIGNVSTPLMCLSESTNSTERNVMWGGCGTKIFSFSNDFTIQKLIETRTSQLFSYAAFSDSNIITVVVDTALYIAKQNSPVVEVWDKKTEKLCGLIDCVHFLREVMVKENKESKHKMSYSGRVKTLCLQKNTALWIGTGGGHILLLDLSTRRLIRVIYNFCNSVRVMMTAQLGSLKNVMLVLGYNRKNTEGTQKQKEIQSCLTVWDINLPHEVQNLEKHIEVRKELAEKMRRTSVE

[7] = target: T7, panel of 374 wild-type kinases (Homo sapiens, UniProt Q8IVT5); settings: read-out: % Enzyme Activity (relative to DMSO controls), KSR1
T7 construct: purchased Reaction Biology Corporation
T7 sequence (Q8IVT5 1-923): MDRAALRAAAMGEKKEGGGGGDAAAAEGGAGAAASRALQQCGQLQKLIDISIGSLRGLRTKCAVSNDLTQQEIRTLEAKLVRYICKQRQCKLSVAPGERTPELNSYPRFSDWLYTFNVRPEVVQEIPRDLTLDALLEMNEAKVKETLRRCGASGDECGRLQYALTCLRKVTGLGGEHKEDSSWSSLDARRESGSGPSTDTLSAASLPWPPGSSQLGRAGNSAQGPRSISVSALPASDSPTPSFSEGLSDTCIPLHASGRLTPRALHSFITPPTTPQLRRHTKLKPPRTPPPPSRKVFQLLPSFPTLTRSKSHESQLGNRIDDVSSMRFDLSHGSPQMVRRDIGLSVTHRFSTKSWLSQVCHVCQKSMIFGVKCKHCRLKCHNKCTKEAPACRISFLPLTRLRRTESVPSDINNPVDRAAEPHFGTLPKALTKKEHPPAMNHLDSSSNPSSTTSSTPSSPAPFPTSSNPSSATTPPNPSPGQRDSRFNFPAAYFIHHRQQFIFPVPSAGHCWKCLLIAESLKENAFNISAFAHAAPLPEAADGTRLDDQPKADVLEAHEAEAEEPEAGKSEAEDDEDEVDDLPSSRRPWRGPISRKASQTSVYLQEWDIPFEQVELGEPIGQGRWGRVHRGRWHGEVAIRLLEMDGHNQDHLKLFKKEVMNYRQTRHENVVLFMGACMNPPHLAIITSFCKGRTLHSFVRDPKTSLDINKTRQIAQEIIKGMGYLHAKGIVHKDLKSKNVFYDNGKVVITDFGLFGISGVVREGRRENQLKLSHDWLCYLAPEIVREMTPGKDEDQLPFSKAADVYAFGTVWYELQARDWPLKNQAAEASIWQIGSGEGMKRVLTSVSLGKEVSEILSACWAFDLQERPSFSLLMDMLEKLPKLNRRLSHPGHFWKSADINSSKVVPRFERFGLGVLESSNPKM

[8] = target: T8, panel of 374 wild-type kinases (Homo sapiens, UniProt O94804); settings: read-out: % Enzyme Activity (relative to DMSO controls), LOK/STK10
T8 construct: purchased Reaction Biology Corporation
T8 sequence (O94804 whole entry): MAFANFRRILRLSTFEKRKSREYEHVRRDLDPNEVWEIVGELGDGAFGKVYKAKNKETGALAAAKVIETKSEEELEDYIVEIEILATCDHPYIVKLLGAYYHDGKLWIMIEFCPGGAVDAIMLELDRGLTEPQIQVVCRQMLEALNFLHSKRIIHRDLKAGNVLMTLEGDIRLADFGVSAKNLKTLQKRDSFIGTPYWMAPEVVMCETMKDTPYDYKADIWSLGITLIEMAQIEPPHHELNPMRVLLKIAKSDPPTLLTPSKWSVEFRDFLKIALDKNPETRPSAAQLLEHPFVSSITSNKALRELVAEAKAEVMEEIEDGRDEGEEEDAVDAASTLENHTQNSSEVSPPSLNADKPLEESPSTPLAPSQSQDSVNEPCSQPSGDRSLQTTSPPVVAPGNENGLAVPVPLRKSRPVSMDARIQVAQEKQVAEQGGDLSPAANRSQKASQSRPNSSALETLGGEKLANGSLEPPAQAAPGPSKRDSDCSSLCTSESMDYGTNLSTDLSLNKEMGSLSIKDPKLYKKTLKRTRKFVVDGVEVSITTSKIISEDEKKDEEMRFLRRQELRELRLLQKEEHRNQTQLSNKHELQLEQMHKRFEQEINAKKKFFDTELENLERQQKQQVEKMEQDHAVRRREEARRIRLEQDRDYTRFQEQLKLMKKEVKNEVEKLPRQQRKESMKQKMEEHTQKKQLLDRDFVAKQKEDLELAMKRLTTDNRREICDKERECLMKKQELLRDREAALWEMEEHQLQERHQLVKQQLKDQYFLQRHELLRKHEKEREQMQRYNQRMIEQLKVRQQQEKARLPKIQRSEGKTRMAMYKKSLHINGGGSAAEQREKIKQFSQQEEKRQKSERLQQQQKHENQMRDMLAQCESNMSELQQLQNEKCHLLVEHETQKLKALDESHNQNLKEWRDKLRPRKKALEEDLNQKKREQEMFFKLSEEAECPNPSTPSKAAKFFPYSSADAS

[9] = target: T9, panel of 374 wild-type kinases (Homo sapiens, UniProt P53778); settings: read-out: % Enzyme Activity (relative to DMSO controls), kinase P38g
T9 construct: purchased Reaction Biology Corporation
T9 sequence (P53778 1-367): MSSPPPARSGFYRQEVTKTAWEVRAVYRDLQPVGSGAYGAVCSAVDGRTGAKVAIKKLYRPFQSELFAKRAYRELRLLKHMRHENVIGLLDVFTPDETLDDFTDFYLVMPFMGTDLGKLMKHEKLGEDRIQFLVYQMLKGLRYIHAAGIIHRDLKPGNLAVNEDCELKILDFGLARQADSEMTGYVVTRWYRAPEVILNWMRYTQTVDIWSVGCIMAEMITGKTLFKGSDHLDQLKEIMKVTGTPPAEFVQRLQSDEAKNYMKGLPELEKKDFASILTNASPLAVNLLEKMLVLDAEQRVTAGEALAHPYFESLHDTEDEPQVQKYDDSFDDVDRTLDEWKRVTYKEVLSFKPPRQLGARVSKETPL

[10] = target: T10, panel of 374 wild-type kinases (Homo sapiens, UniProt P12931); settings: read-out: % Enzyme Activity (relative to DMSO controls), c-Src
T10 construct: purchased Reaction Biology Corporation
T10 sequence (P12931 whole entry): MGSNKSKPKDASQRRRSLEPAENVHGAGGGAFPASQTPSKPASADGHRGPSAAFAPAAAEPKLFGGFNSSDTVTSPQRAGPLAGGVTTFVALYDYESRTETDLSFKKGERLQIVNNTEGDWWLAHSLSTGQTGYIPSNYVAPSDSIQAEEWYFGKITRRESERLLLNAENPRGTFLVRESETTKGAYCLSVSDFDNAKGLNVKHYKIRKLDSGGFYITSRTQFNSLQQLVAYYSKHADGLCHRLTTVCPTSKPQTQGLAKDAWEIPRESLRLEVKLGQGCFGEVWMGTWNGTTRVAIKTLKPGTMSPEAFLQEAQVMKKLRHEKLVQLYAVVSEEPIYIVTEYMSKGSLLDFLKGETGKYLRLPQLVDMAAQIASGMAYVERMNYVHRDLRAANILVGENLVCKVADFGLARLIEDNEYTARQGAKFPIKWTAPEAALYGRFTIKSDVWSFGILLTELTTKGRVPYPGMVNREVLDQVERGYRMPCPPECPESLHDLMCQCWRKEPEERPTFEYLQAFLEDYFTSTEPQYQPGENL

T1 sequence (Q96GD4 whole entry): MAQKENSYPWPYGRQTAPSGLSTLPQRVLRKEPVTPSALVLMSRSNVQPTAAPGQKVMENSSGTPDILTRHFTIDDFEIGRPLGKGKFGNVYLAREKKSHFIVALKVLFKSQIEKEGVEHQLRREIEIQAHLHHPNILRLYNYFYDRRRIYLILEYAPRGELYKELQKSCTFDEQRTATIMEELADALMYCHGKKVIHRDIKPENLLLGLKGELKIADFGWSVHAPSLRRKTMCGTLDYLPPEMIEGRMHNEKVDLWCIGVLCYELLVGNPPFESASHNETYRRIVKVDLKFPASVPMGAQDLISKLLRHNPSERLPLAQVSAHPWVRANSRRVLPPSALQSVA

O=C(Nc1cnn(-c2csc(C(=O)NC3COC3)c2)c1)Nc1ccccc1Cl [Compound 17, 4-(4-(3-(2-chlorophenyl)ureido)-1H-pyrazol-1-yl)-N-(oxetan-3-yl)thiophene-2-carboxamide]
remaining activity at 5 µM [1]: 93%
remaining activity at 5 µM [2]: 94.2%
remaining activity at 5 µM [3]: 92.6%
remaining activity at 5 µM [4]: 102%
remaining activity at 5 µM [5]: 48.7%
remaining activity at 5 µM [6]: 88.2%
remaining activity at 5 µM [7]: 101%
remaining activity at 5 µM [8]: 87.9%
remaining activity at 5 µM [9]: 99.4%
remaining activity at 5 µM [10]: 91.1%

O=C(Nc1cnn(-c2csc(C(=O)NC3COC3)c2)c1)Nc1c(F)cccc1Cl [Compound 25, 4-(4-(3-(2-chloro-6-fluorophenyl)ureido)-1H-pyrazol-1-yl)-N-(oxetan-3-yl)thiophene-2-carboxamide]
remaining activity at 5 µM [1]: 69.8%
remaining activity at 5 µM [2]: 94%
remaining activity at 5 µM [3]: 96.5%
remaining activity at 5 µM [4]: 100%
remaining activity at 5 µM [5]: 61.4%
remaining activity at 5 µM [6]: 91.3%
remaining activity at 5 µM [7]: 105%
remaining activity at 5 µM [8]: 89%
remaining activity at 5 µM [9]: 98.3%
remaining activity at 5 µM [10]: 98.4%

Cc1sc(C(=O)NC2COC2)cc1-n1cc(NC(=O)Nc2c(F)cccc2Cl)cn1 [Compound 27, 4-(4-(3-(2-chloro-6-fluorophenyl)ureido)-1H-pyrazol-1-yl)-5-methyl-N-(oxetan-3-yl)thiophene-2-carboxamide]
remaining activity at 10 µM ([1]; 10 uM): 96.4%
remaining activity at 10 µM ([2]; 10 uM): 93.1%
remaining activity at 10 µM ([3]; 10 uM): 127%
remaining activity at 10 µM ([4]; 10 uM): 102%
remaining activity at 10 µM ([5]; 10 uM): 103%
remaining activity at 10 µM ([6]; 10 uM): 101%
remaining activity at 10 µM ([7]; 10 uM): 103%
remaining activity at 10 µM ([8]; 10 uM): 96.4%
remaining activity at 10 µM ([9]; 10 uM): 90.5%
remaining activity at 10 µM ([10]; 10 uM): 96.6%
